Results: patent publication US6720324B2, “Selective melanin concentrating hormone-1 (MCH1) receptor antagonists and uses thereof” (Synaptic Pharmaceutical Corporation, priority 2000, dated 2004)
Like-named read-outs stand apart in the source and are kept apart here. Ends that are not written are not given here.

Experiments:
G4F-7 cells = conditions: cited from earlier work; for Ki: inhibition of radioiodinated [Phe13,Tyr19]-MCH binding
human MCH1 receptor [1] = biological target: T1, human MCH1 receptor (Homo sapiens, UniProt Q99705); experiment: Functional assay: intracellular calcium mobilization (antagonist potency Kb); assay type: cell-based; design: expressed in transfected cells; host or cells: COS-7 cells, transient, DEAE-dextran, plasmid pEXJ.HR-TL231 (ATCC 203197)
Protocol: Intracellular calcium mobilization assays for the MCH1 receptor were carried out using plasmid pEXJ.HR-TL231 (ATCC Accession No. 203197). COS-7 cells were transiently transfected with DNA encoding the MCH1 receptor utilizing the DEAE-dextran method as described above. The intracellular free calcium concentration was measured by fluorescent imaging using the calcium sensitive fluorscent dye Fluo-3. COS-7 cells expressing the human MCH1 receptor were seeded onto sterile 96 well plates, washed with Hank's balanced salt solution (HBSS), containing 20 mM HEPES, 2.5 mM probenecid, and 0.1% BSA, and loaded with the same buffer containing 3.8 μM Fluo-3 for 1 hour at 37° C. After washing with HBSS to remove the fluo-3 solution, cells were equilibrated for 10 minutes.

human NPY1 = biological target: T2, human NPY1 (Homo sapiens, UniProt P25929); experiment: Radioligand binding assay, cloned receptor; conditions: Table 2; read-out: hNPY1 Ki
T2 construct: expressed in transfected cells
T2 sequence (P25929 1-384): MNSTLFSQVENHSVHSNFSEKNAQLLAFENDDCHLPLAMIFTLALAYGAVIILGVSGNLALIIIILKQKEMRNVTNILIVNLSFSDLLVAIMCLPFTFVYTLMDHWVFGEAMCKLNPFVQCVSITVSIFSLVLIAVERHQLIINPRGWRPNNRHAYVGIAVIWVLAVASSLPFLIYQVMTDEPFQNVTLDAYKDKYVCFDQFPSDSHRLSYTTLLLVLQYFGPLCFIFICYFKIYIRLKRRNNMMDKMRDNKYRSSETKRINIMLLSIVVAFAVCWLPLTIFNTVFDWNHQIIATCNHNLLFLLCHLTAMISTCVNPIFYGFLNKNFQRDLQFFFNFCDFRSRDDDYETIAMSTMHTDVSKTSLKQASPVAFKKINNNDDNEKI
Protocol: (§1) For binding assays, pellets of transfected cells are suspended in ice-cold buffer (20 mM Tris.HCl, 5 mM EDTA, pH 7.4) and homogenized by sonication for 7 sec. The cell lysates are centrifuged at 200×g for 5 min at 4° C. The supernatants are then centrifuged at 40,000×g for 20 min at 4° C. The resulting pellets are washed once in the homogenization buffer and suspended in binding buffer (see methods for radioligand binding). Protein concentrations are determined by the method of Bradford (1976) using bovine serum albumin as the standard. Binding assays are usually performed immediately, however it is possible to prepare membranes in batch and store frozen in liquid nitrogen for future use.
(§2) The methods to obtain the cDNA of the human NPY1, NPY5, GALR1, GALR2, and GALR3 and rat 5-HT2C receptors, express said receptors in heterologous systems, and carry out assays to determine binding affinity are described in the following publications and above: human NPY1 (Larhammar et al., 1992), human NPY5 (U.S. Pat. No. 5,602,024, the disclosure of which is hereby incorporated by reference in its entirety into this application), human Gal1 (Habert-Ortoli et al., 1994), human Gal2 (Smith et al., 1997), human Gal3 (Smith et al., 1998), and rat 5-HT2C (Julius et al., 1988).

human GALR3 = biological target: T3, human GALR3 (Homo sapiens, UniProt O60755); experiment: Radioligand binding assay, cloned receptor; conditions: Table 2; read-out: hGALR3 Ki
T3 construct: expressed in transfected cells
T3 sequence (O60755 1-368): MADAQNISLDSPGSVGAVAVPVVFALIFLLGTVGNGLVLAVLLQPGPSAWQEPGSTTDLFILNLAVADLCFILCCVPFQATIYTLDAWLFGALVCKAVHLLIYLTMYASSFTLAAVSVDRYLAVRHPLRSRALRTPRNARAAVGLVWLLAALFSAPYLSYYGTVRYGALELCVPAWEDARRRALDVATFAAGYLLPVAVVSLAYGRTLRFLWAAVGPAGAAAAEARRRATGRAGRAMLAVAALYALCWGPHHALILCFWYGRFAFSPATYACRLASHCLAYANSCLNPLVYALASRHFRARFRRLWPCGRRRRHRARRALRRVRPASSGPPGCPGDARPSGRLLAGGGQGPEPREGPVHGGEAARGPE
Protocol: as §1, §2

human NPY5 = biological target: T4, human NPY5 (Homo sapiens, UniProt Q15761); experiment: Radioligand binding assay, cloned receptor; conditions: Table 2; read-out: hNPY5 Ki
T4 construct: expressed in transfected cells
T4 sequence (Q15761 1-445): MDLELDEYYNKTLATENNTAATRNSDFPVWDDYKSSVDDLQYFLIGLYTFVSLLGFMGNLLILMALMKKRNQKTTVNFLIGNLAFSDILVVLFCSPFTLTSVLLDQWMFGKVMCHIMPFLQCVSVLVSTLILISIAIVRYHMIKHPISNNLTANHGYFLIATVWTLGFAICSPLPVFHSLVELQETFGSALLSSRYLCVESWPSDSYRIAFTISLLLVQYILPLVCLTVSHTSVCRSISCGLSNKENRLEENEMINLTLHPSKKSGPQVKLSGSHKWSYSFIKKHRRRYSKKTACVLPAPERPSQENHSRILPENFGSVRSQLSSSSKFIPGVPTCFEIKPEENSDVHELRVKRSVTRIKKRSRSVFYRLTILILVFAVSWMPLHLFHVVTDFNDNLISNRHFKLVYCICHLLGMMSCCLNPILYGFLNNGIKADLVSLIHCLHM
Protocol: as §1, §2

human GALR1 = biological target: T5, human GALR1 (Homo sapiens, UniProt P47211); experiment: Radioligand binding assay, cloned receptor; conditions: Table 2; read-out: hGALR1 Ki
T5 construct: expressed in transfected cells
T5 sequence (P47211 1-349): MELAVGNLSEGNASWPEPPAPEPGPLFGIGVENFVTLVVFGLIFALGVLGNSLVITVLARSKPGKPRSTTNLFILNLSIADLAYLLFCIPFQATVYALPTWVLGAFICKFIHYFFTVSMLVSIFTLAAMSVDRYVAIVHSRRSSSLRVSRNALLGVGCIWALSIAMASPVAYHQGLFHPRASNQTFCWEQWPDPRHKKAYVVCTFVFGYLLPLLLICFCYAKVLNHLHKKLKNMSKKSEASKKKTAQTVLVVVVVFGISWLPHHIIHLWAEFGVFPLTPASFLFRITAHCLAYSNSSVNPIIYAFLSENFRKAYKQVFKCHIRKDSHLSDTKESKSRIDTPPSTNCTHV
Protocol: as §1, §2

human GALR2 = biological target: T6, human GALR2 (Homo sapiens, UniProt O43603); experiment: Radioligand binding assay, cloned receptor; conditions: Table 2; read-out: hGALR2 Ki
T6 construct: expressed in transfected cells
T6 sequence (O43603 1-387): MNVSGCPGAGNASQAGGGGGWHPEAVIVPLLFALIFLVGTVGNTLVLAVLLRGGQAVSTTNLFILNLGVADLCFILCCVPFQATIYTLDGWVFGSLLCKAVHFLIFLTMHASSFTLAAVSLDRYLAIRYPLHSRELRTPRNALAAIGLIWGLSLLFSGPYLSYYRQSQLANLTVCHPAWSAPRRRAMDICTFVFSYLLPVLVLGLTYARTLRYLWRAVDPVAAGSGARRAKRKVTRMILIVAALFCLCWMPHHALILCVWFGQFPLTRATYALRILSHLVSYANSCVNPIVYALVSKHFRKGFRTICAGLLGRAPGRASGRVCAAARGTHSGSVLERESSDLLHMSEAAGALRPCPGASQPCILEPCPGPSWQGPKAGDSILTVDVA
Protocol: as §1, §2

rat 5-HT2C receptor = biological target: T7, rat 5-HT2C receptor (Rattus norvegicus, UniProt P08909); experiment: Radioligand binding assay, cloned receptor; conditions: Table 2; read-out: r5HT2C Ki
T7 construct: expressed in transfected cells
T7 sequence (P08909 33-460): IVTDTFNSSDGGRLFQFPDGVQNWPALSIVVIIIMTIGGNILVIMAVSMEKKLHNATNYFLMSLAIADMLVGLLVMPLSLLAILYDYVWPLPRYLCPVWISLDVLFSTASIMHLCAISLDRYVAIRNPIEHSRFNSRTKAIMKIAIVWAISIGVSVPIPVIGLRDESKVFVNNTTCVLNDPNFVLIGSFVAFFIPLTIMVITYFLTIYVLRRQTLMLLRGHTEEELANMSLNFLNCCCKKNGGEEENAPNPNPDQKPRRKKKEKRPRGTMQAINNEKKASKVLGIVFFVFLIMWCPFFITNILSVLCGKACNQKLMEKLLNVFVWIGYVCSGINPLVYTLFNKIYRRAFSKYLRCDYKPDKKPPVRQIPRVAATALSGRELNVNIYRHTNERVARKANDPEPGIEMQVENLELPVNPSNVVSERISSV
Protocol: as §1, §2

human MCH1 receptor [2] = biological target: T1, human MCH1 receptor; experiment: Radioligand competition binding with [3H]Compound 10, membranes of A293 cells; conditions: Table 3, A293 cell membranes, [3H]Compound 10 as radioligand, read-out: hMCH1 * Ki
Protocol: as §1
Radioligand binding assays for the MCH1 receptor were carried out using plasmid pEXJ.HR-TL231 (ATCC Accession No. 203197). Plasmid pEXJ.HR-TL231 comprises the regulatory elements necessary for expression of DNA in a mammalian cell operatively linked to DNA encoding the human MCH1 receptor so as to permit expression thereof. Plasmid pEXJ.HR-TL231 was deposited on Sep. 17, 1998, with the American Type Culture Collection (ATCC), 12301 Parklawn Drive, Rockville, Md. 20852, U.S.A. under the provisions of the Budapest Treaty for the International Recognition of the Deposit of Microorganisms for the Purposes of Patent Procedure and was accorded ATCC Accession No. 203197. […]

[3] = Table 1, cloned human MCH1 receptor, functional assay, read-out: Kb (nM) hMCH1
[4] = Table 2, antagonist potency at the human MCH1 receptor, read-out: hMCH1 Kb

T1 sequence (Q99705 whole entry): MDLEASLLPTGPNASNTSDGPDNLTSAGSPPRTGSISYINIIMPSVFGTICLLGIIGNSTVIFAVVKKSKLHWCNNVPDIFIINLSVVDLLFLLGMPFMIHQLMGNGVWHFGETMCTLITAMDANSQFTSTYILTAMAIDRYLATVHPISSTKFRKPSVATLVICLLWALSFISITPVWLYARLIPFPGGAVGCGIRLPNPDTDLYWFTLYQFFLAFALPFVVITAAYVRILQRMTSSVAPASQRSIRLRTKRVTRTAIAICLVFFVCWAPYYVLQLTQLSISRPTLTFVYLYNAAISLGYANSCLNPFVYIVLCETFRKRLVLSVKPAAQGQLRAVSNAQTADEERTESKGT

## [Phe^13,Tyr^19]-MCH: radioiodinated MCH analogue; the ligand retained biological activity and exhibited specific binding to a variety of cell lines
G4F-7 cells; radioiodinated ligand, G4F-7 cells
  Kd: 0.118 nM

## O=C(CCCN1CCC(NC(=O)c2ccccc2)CC1)c1ccc(Cl)cc1 [Example 28, 1-[3-(4-CHLOROBENZOYL)]PROPYL-4-BENZAMIDOPIPERIDINE]
Human MCH1 receptor [1]; [3]
  Kb: 60 nM
Human MCH1 receptor [1]; [4]
  Kb: 60 nM
Human NPY1
  Ki: > 50000 nM

## CCCCc1ccc(-c2cc(=O)[nH]c3[nH]c(=O)[nH]c(=O)c23)s1 [Example 37, 5-(5-BUTYL-2-THIENYL)PYRIDO[2,3-d]PYRIMIDINE-2,4,7(1H,3H,8H)-TRIONE]
Human MCH1 receptor [1]; [3]
  Kb: 162 nM
Human MCH1 receptor [1]; [4]
  Kb: 162 nM
Human GALR3
  Ki: > 50000 nM
Human NPY5
  Ki: > 50000 nM
Human GALR1
  Ki: > 50000 nM
Human NPY1
  Ki: > 50000 nM
Human GALR2
  Ki: > 50000 nM
Rat 5-HT2C receptor
  Ki: > 50000 nM

## rat ANF: rat ANF, weakly inhibited binding of the radioiodinated MCH analogue (SLRRSSCFGGRIDRIGAQSGLGCNSFRY; ends and bridges not checked; cysteine pairing not given here; UniProt P01161 123-150, looked up)
G4F-7 cells
  Ki: 116 nM

## Melanin-concentrating hormone [native MCH]
G4F-7 cells
  Ki: 12 nM

## α-MSH
G4F-7 cells; radioiodinated [Phe13,Tyr19]-MCH binding
  inhibition of binding: not inhibited

## CCN1c2ccc(/C=C3\SC(=S)NC3=O)cc2C(C)=CC1(C)C [Example 25]
Human MCH1 receptor [1]; [3]
  Kb: 126 nM
Human MCH1 receptor [1]; [4]
  Kb: 126 nM
Human NPY1
  Ki: > 50000 nM

## COCC1=C(C(=O)OC)C(c2ccc(F)c(F)c2)N(C(=O)NCCCN2CCC(c3cccc(NC(C)=O)c3)CC2)C(=O)N1 (single isomer, unassigned; (+)) [Example 10, (+)-1,2,3,6-TETRAHYDRO-1-{N-[4-(3,-ACETAMIDO)-PHENYL-PIPERIDIN-1-YL]PROPYL}CARBOXAMIDO-4-METHOXYMETHYL-6-(3,4-DIFLUORO-PHENYL)-2-OXOPYRIMIDINE-5-CARBOXYLIC ACID METHYL ESTER]
Human MCH1 receptor [1]; [3]
  Kb: 0.3 nM
Human MCH1 receptor [2]
  Ki: 0.08 nM
Rat 5-HT2C receptor
  Ki: 29600 nM
